Results published in ChEMBL document CHEMBL5380808, “Design, Synthesis, and Biological Activity of Marinacarboline Analogues as STAT3 Pathway Inhibitors for Docetaxel-Resistant Triple-Negative Breast Cancer” (J Med Chem, 2023).
pIC50: −log10 of the molar value. Calls of active or inactive are those of the source. The rule behind the calls is not given here.

Columns and labels:
[1] = Induction of cell cycle arrest in docetaxel-resistant human MDA-MB-231-DTR cells assessed as accumulation at subG1 phase at 5 uM incubated for 48 hrs by PI staining based flow cytometry analysis (reference value: 0.41%); assay type: functional
MDA-MB-231 [2] = test: Induction of apoptosis in docetaxel-resistant human MDA-MB-231-DTR cells assessed as upregulation of cleaved-PARP expression level at 2.5 to 10 uM incubated for 48 hrs by Western blot analysis; assay type: functional, cell-based; details: dose 2.5-10 µM
MDA-MB-231 [3] = test: Induction of cell cycle arrest at G2/M phase in docetaxel-resistant human MDA-MB-231-DTR cells assessed as upregulation of Chk2 phosphorylation at T68 at 2.5 to 10 uM incubated for 36 hrs by Western blot analysis; assay type: functional, cell-based; details: dose 2.5-10 µM
MDA-MB-231 [4] = test: Antiproliferative activity against human MDA-MB-231 cells assessed as reduction in cell viability incubated for 72 hrs by MTT assay; assay type: functional, cell-based; details: MDA-MB-231, 72 h
[5] = Induction of cell cycle arrest in docetaxel-resistant human MDA-MB-231-DTR cells assessed as accumulation at G0/G1 phase at 5 uM incubated for 24 hrs by PI staining based flow cytometry analysis (reference value: 75.49%); assay type: functional
[6] = Induction of cell cycle arrest in docetaxel-resistant human MDA-MB-231-DTR cells assessed as accumulation at S phase at 5 uM incubated for 12 hrs by PI staining based flow cytometry analysis (reference value: 10.56%); assay type: functional
[7] = Induction of cell cycle arrest in docetaxel-resistant human MDA-MB-231-DTR cells assessed as accumulation at subG1 phase at 5 uM incubated for 36 hrs by PI staining based flow cytometry analysis (reference value: 0.52%); assay type: functional
[8] = Synergistic antiproliferative activity against docetaxel-resistant human MDA-MB-231-DTR cells assessed as combination index at 8 uM incubated for 72 hrs in presence of 1 uM of docetaxel by Chou-Talalay method; assay type: functional
MDA-MB-231 [9] = test: Antitumor activity against docetaxel-resistant human MDA-MB-231-DTR cells xenografted in BALB/c mouse assessed as downregulation of Ki67 level in tumor tissue at 10 mg/kg, ip daily for 12 days by Immunohistochemical analysis; assay type: functional, organism-based; details: time 12.0 day
[10] = Induction of apoptosis in docetaxel-resistant human MDA-MB-231-DTR cells assessed as increase in total cell death at 5 uM incubated for 48 hrs by Annexin V-FITC and PI staining based flow cytometry; assay type: functional
[11] = Induction of cell cycle arrest in docetaxel-resistant human MDA-MB-231-DTR cells assessed as accumulation at S phase at 5 uM incubated for 48 hrs by PI staining based flow cytometry analysis (reference value: 10.56%); assay type: functional
[12] = Synergistic antiproliferative activity against docetaxel-resistant human MDA-MB-231-DTR cells assessed as combination index at 2 uM incubated for 72 hrs in presence of 4 uM of docetaxel by Chou-Talalay method; assay type: functional
[13] = Synergistic antiproliferative activity against docetaxel-resistant human MDA-MB-231-DTR cells assessed as combination index at 8 uM incubated for 72 hrs in presence of 2 uM of docetaxel by Chou-Talalay method; assay type: functional
[14] = Induction of cell cycle arrest in docetaxel-resistant human MDA-MB-231-DTR cells assessed as accumulation at G2/M phase at 5 uM incubated for 48 hrs by PI staining based flow cytometry analysis (reference value: 13.54%); assay type: functional
[15] = Induction of cell cycle arrest in docetaxel-resistant human MDA-MB-231-DTR cells assessed as accumulation at G2/M phase at 10 uM incubated for 36 hrs by PI staining based flow cytometry analysis (reference value: 13.16%); assay type: functional
[16] = Synergistic antiproliferative activity against docetaxel-resistant human MDA-MB-231-DTR cells assessed as combination index at 4 uM incubated for 72 hrs in presence of 4 uM of docetaxel by Chou-Talalay method; assay type: functional
[17] = Selectivity index, ratio of IC50 for cytotoxicity against human MRC5 cells to IC50 for antiproliferative activity against human MDA-MB-231 cells; assay type: toxicity, cell-based; details: MRC5 cells and MDA-MB-231 cells, read-out: Ratio IC50
[18] = Induction of cell cycle arrest in docetaxel-resistant human MDA-MB-231-DTR cells assessed as accumulation at G0/G1 phase at 10 uM incubated for 36 hrs by PI staining based flow cytometry analysis (reference value: 74.77%); assay type: functional
[19] = Toxicity in BALB/c mouse xenografted with docetaxel-resistant human MDA-MB-231-DTR cells assessed as body weight change at 5 mg/kg, ip daily for 12 days; assay type: organism-based; details: in vivo, 288 h, time 12 day
[20] = target: T1, Signal transducer and activator of transcription 5A (Homo sapiens) (UniProt P42229); test: Inhibition of STAT5 phosphorylation at Y694 residue in docetaxel-resistant human MDA-MB-231-DTR cells assessed as decrease in phosphorylated STAT5 level at 2.5 to 10 uM incubated for 24 hrs by Western blot analysis; assay type: cell-based; details: dose 2.5-10 µM
T1 sequence (whole entry): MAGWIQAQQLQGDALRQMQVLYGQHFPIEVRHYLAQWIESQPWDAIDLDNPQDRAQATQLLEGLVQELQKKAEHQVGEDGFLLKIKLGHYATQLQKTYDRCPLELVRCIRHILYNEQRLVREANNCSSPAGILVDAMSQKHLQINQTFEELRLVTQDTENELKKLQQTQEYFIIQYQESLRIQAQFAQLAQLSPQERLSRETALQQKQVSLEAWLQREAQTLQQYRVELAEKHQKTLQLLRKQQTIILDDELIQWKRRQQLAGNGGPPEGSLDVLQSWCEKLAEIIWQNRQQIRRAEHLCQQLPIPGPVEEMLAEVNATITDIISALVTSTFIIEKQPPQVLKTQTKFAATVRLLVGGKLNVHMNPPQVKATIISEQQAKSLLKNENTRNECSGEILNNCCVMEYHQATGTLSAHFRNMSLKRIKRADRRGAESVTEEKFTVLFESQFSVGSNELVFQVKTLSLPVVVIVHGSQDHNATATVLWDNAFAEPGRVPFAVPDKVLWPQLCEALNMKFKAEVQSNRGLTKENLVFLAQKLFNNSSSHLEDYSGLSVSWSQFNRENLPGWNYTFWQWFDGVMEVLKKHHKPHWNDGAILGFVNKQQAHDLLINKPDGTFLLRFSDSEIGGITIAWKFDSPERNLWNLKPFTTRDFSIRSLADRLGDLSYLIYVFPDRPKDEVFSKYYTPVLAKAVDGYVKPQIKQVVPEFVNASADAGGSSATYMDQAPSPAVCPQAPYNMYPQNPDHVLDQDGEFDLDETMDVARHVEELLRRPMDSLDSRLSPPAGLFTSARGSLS

[21] = Induction of cell cycle arrest in docetaxel-resistant human MDA-MB-231-DTR cells assessed as accumulation at G2/M phase at 5 uM incubated for 12 hrs by PI staining based flow cytometry analysis (reference value: 13.54%); assay type: functional
MDA-MB-231 [22] = test: Induction of apoptosis in docetaxel-resistant human MDA-MB-231-DTR cells assessed as downregulation of Bcl2 expression level at 2.5 to 10 uM incubated for 48 hrs by Western blot analysis; assay type: functional, cell-based; details: dose 2.5-10 µM

## O=C(NCCc1c[nH]c2ccccc12)c1cc2c([nH]c3ccccc32)c(C(=O)c2ccc(Br)cc2)n1
[1]
  Activity: 19.53%
MDA-MB-231 [2]
  Activity: Active
MDA-MB-231 [3]
  Activity: Active
MDA-MB-231 [4]
  pIC50: 5.53
[5]
  Activity: 82.18%
[6]
  Activity: 12.14%
[7]
  Activity: 1.81%
[8]
  CI: 0.66
MDA-MB-231 [9]
  Activity: Active
[10]
  Activity: 18.79%
[11]
  Activity: 12.49%
[12]
  CI: 0.32
[13]
  CI: 0.45
[14]
  Activity: 12.87%
[15]
  Activity: 29.72%
[16]
  CI: 0.37
[17]
  selectivity ratio: 10.7
[18]
  Activity: 51.09%
[19]
  Activity: Non-Toxic
[20]
  inhibition: inactive
[21]
  Activity: 17.91%
MDA-MB-231 [22]
  Activity: Active
